In patent US20110159304A1, “ANTI-SULPHATE REDUCING BACTERIA COMPOSITION COMPRISING 1,2-BENZISOTHIAZOL-3(2H)-ONE, IRGASAN, BENZYL-2-BROMOACETATE, 2,2-DIBROMO-2-CYANOACETAMIDE, AND 2-BROMO-2-NITROPROPAN-1,3-DIOL” (KOREA GAS CORPORATION, priority 2009, published 2011):
Read-outs that look alike come from different tables or passages of the source.

Experiments:
Assay type in all cases: cell-based
[1] = test system: Desulfovibrio desulfuricans KCTC 5786; assay: Antibacterial activity evaluation, paper disk clear zone and MIC; details: for zone of inhibition at 0.01 % / zone of inhibition at 0.1 % / zone of inhibition at 1 % / zone of inhibition at 0.001 %: Desulfovibrio desulfuricans; for antibacterial activity relative to other commercially used antibacterial agents: compared by MIC with 1-hydroxypyridine-2-tionzinc, 2-methyl-isothiazolin-3-one and the like; for MIC minimum inhibitory concentration: paper disk test, concentrations 1.0-0.001%, 37° C.; for zone of inhibition at 0.001 %: antibacterial agent concentration 0.001%
Experimental: Desulfovibrio desulfuricans KCTC 5786 was used as a test sulphate reducing bacteria strain.
The all materials used in the test, disk paper, medium and so on, were sterilized for 15 min at 121° C. Bacteria's culture and antibacterial activity test were performed in an anaerobic chamber (Anaerobic System, Form a Sci; condition maintaining not more than 5 ppm of oxygen concentration).
After culturing the test strain for not less than 3 days, the volume of the culture was adjusted to 10^5-7/mL to prepare for plating it on Desulfovibrio medium, and the test compounds were resolved in a suitable solvent for use (ethanol for lipid soluble compounds, and distilled water for water soluble compounds).
(§1) The experiment proceeded with varying the concentration of the compounds used in the experiment to 1.0%, 0.1%, 0.01%, and 0.001%. The 8 mm of a paper disk was placed on the plate prepared by plating the culture, and were inoculated with 50 μl of various concentrations of the compound. After culturing the strain for 24, and 48 hrs at 37° C., the clear zone (mm) representing antibacterial activity was measured and Minimum Inhibitory Concentration (MIC) was determined.

[2] = test system: Desulfovibrio desulfuricans KCTC 5786; assay: Antibacterial activity test after thermal shock (paper disk clear zone); details: for clear zone after thermal shock / clear zone before thermal shock: 0.1% condition; for clear zone after thermal shock: after thermal shock (180° C., 1 hr); for antibacterial activity after thermal shock: after 180° C., 1 hour, 0.1%
Experimental: as §1
Applying the heat shrinkable sheet using flames of torch, the temperature increased to about 150° C. and the exposure time was around 15 minutes. […] After 1,2-benzisothiazol-3(2H)-one, irgasan, benzyl-2-bromoacetate, 2,2-dibromo-2-cyanoacetamide, and 2-bromo-2-nitropropan-1,3-diol were exposed to higher temperature (180° C.) for a longer time (1 hour), the antibacterial activity was measured at a concentration of 0.1% using the same method as Experiment Example 1 (see, Table 3, FIGS. 3a to 3e).

[3] = test system: Desulfovibrio desulfuricans KCTC 5786; assay: Antibacterial activity test of antibacterial agent-added coating material (adhesive, primer)
Experimental: as §1
Test equipment and materials, and test condition are as follows: • Coating material type: adhesive (Canusa), primer (Polyken) • Mixed antibacterial agent's concentration: control, 0.5, 1.0, 2.0, 5.0 wt %
As an adhesive specimen, the components were mixed by manual stirring in an oven at 150° C., and then an 1 mm-thick adhesive sheet was fabricated. As a primer specimen, a 0.2 mm-thick sheet having a primer dry film was fabricated. The specimen was diced into a size of 15 mm×15 mm, and after UV sterilization, the antibacterial activity of the specimen was assessed using the same environment and method as in the test method of Experiment Example 1 described above.

[4] = KCTC5786, read-out: CZ (mm) clear zone
[5] = primer (Polyken) with 0.5 wt % antibacterial agent
[6] = primer (Polyken) with 1.0 wt % antibacterial agent
[7] = primer (Polyken) with 2.0 wt % antibacterial agent
[8] = primer (Polyken) with 5.0 wt % antibacterial agent
[9] = KCTC5786, antibacterial agent concentration 0.1%, 8 mm paper disk, 50 μl, — = negative, read-out: CZ (mm) clear zone
[10] = KCTC5786, antibacterial agent concentration 1%, 8 mm paper disk, 50 μl, — = negative, read-out: CZ (mm) clear zone
[11] = KCTC5786, antibacterial agent concentration 0.01%, 8 mm paper disk, 50 μl, — = negative, read-out: CZ (mm) clear zone
[12] = adhesive (Canusa) with 0.5 wt % antibacterial agent
[13] = adhesive (Canusa) with 1.0 wt % antibacterial agent
[14] = adhesive (Canusa) with 2.0 wt % antibacterial agent
[15] = adhesive (Canusa) with 5.0 wt % antibacterial agent
[16] = antibacterial agent concentration 0.1%, 8 mm paper disk, 50 μl, — = negative
[17] = antibacterial agent concentration 1%, 8 mm paper disk, 50 μl, — = negative
[18] = KCTC5786, 8 mm paper disk, 50 μl, — = negative, read-out: CZ (mm) clear zone

Compound	antibacterial activity relative to other commercially used antibacterial agents [1] [times]	clear zone after thermal shock [2] [mm]	clear zone before thermal shock [2] [mm]	antibacterial activity after thermal shock [2]	Clear zone (mm), primer [3, 7]	Clear zone (mm), primer [3, 8]	MIC minimum inhibitory concentration [1] [%]	zone of inhibition at 0.1 % [1, 9] [mm]	zone of inhibition at 1 % [1, 10] [mm]	also measured
Oc1cc(Cl)ccc1Oc1ccc(Cl)cc1Cl [Irgasan, irgasan]	10	13	13	maintained the excellent antibacterial activity	1.5 mm	6 mm	–	–	–	zone of inhibition at 0.01 % [1, 4]: 5 mm; zone of inhibition at 0.1 % [1, 4]: 11 mm; zone of inhibition at 1 % [1, 4]: 14 mm; Clear zone (mm), primer [3, 5]: 3.5 mm; Clear zone (mm), primer [3, 6]: 1.5 mm
c1ccc2[nH]c(-c3cscn3)nc2c1 [Thiabendazole minimum 99%, Thiabendazole, reference compound]	–	–	–	–	–	–	≥ 1	–	–	–
CCCCNC(=O)OCC#CI [3-iodo-2-propynyl n-butylcarbamate, 97%, 3-iodo-2-propynyl n-butylcarbamate, reference compound]	–	–	–	–	–	–	0.1	3	5.5	–
Cn1sccc1=O [2-methyl-4-isothiazoline-3-one, reference compound]	–	–	–	–	–	–	0.1	–	–	zone of inhibition at 0.1 % [1, 4]: 5 mm; zone of inhibition at 1 % [1, 4]: 12 mm
O=[N+]([O-])C(Br)(CO)CO [2-bromo-2-nitropropan-1,3-diol]	10	25	20	maintained the excellent antibacterial activity	2 mm	16.5 mm	–	8	18.5	zone of inhibition at 0.01 % [1, 11]: 1.5 mm; Clear zone (mm), adhesive [3, 12]: 5.5 mm; Clear zone (mm), adhesive [3, 13]: 10.5 mm; Clear zone (mm), adhesive [3, 14]: 13 mm; Clear zone (mm), adhesive [3, 15]: 14.5 mm; Clear zone (mm), primer [3, 5]: 9 mm; Clear zone (mm), primer [3, 6]: 9 mm
Cc1cc(O)cc(C)c1Cl [4-chloro-3,5-dimethylphenol, reference compound]	–	–	–	–	–	–	0.1	1	16	–
O=CCCCC=O [Glutar-di-aldehyde, 50 wt %, Glutar-di-aldehyde, reference compound]	–	–	–	–	–	–	0.1	–	–	CZ (mm) clear zone [1, 16]: 6 mm; CZ (mm) clear zone [1, 17]: 12 mm
O=c1[nH]sc2ccccc12 [1,2-benzisothiazol-3(2H)-one]	10	14.5	16	maintained the excellent antibacterial activity	8.5 mm	17.5 mm	–	6.5	13.5	zone of inhibition at 0.001 % [1, 18]: 1 mm; zone of inhibition at 0.01 % [1, 11]: 2.5 mm; Clear zone (mm), adhesive [3, 12]: 15 mm; Clear zone (mm), adhesive [3, 13]: 18 mm; Clear zone (mm), adhesive [3, 14]: 19 mm; Clear zone (mm), adhesive [3, 15]: 25 mm; Clear zone (mm), primer [3, 6]: 7.5 mm
O=C(Nc1ccc(Cl)cc1)Nc1ccc(Cl)c(Cl)c1 [3,4,4-trichloro-Carbanilide, reference compound]	–	–	–	–	–	–	≥ 1	–	–	–
[O-]n1ccccc1=S.[O-]n1ccccc1=S.[Zn+2] [1-hydroxypyridine-2-thionezinc, reference compound]	–	–	–	–	–	–	0.1	–	–	CZ (mm) clear zone [1, 16]: 1 mm; CZ (mm) clear zone [1, 17]: 3.5 mm
Molybdenum (VI) oxide [Molybdenum (VI) oxide 99.99%, reference compound]	–	–	–	–	–	–	1.0	–	–	CZ (mm) clear zone [1, 17]: 6 mm
O=C(CBr)OCc1ccccc1 [Benzyl-2-bromoacetate, benzyl-2-bromoacetate]	10	36	39	maintained the excellent antibacterial activity	≧34 mm	≧39 mm	–	≥ 39	≥ 39	zone of inhibition at 0.001 % [1, 18]: 35 mm; zone of inhibition at 0.01 % [1, 11]: ≥ 39 mm; Clear zone (mm), adhesive [3, 12]: 24 mm; Clear zone (mm), adhesive [3, 13]: 30 mm; Clear zone (mm), adhesive [3, 14]: 34 mm; Clear zone (mm), adhesive [3, 15]: ≧39 mm; Clear zone (mm), primer [3, 5]: ≧26 mm; Clear zone (mm), primer [3, 6]: ≧32 mm
N#Cc1c(Cl)c(Cl)c(Cl)c(C#N)c1Cl [Chlorothalonil, reference compound]	–	–	–	–	–	–	0.1	2	4	–
N#CC(Br)(Br)C(N)=O [2,2-dibromo-2-cyanoacetamide]	10	18.5	39.5	maintained the excellent antibacterial activity	1 mm	6.5 mm	–	≥ 39	≥ 39	zone of inhibition at 0.001 % [1, 18]: ≥ 39 mm; zone of inhibition at 0.01 % [1, 11]: ≥ 39 mm; Clear zone (mm), adhesive [3, 12]: 2 mm; Clear zone (mm), adhesive [3, 13]: 2.5 mm; Clear zone (mm), adhesive [3, 14]: ≧26 mm; Clear zone (mm), adhesive [3, 15]: ≧30.5 mm; Clear zone (mm), primer [3, 5]: 1.5 mm
